According to article PMC6074028 (Organic & biomolecular chemistry, 2009):
Read-outs that look alike come from different tables or passages of the source.

Columns and labels:
[1] = target: T1, BaPanK (type-III pantothenate kinase from Bacillus anthracis) (Bacillus anthracis, UniProt Q81VX4); format: biochemical
[2] = target: T1, BaPanK (type-III pantothenate kinase from Bacillus anthracis); format: biochemical; remark: listed apart in the source

T1 sequence (Q81VX4 whole entry, looked up): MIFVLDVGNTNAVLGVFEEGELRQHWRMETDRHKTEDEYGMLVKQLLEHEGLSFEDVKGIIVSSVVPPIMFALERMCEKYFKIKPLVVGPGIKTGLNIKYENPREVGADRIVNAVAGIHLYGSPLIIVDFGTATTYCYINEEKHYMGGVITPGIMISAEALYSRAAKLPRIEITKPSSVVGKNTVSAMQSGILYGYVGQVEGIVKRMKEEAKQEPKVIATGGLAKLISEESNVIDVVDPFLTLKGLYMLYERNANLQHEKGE

Structure (SMILES)	Km [1] [µM]	Km [2] [µM]
Nc1ncnc2c1ncn2[C@@H]1O[C@H](COP(=O)(O)OP(=O)(O)OP(=O)(O)O)[C@@H](O)[C@H]1O [ATP]	510	
Nc1ncnc2c1ncn2[C@H]1C[C@H](O)[C@@H](COP(=O)(O)OP(=O)(O)OP(=O)(O)O)O1 [dATP]	138	
Nc1nc2c(ncn2[C@H]2C[C@H](O)[C@@H](COP(=O)(O)OP(=O)(O)OP(=O)(O)O)O2)c(=O)[nH]1 [dGTP]	117	
Cc1cn([C@H]2C[C@H](O)[C@@H](COP(=O)(O)OP(=O)(O)OP(=O)(O)O)O2)c(=O)[nH]c1=O [dTTP]	723	
CC(C)(CO)[C@@H](O)C(=O)NCCC(=O)O [pantothenate]		275
